Like-named read-outs stand apart in the source and are kept apart here.
Key:
[1] = tested on: resistant strains of A. baumannii and one strain of Acinetobacter sp.; assay: MIC without and with sub-inhibitory polymyxin B, whole panel / MIC ranges (Example 4; also strains not listed separately); type: cell-based; conditions: for MIC: Acinetobacter baumannii
A. baumannii A387 [2] = assay: MIC without and with sub-inhibitory polymyxin B (Example 4); type: cell-based, Acinetobacter baumannii; conditions: for MIC +0.06 μg/ml PB: A. baumannii A387, +0.06 μg/ml polymyxin B; for MIC: Acinetobacter baumannii, A387, A. baumannii A387, without polymyxin B, read-out: MIC without PB
B. thailandensis = assay: microbe, parasite or virus in culture; type: cell-based, Burkholderia thailandensis; conditions: pH 7 versus pH 5
A. baumannii A473 [3] = assay: MIC without and with sub-inhibitory polymyxin B (Example 4); type: cell-based, Acinetobacter baumannii; conditions: for MIC: Acinetobacter baumannii, A473, A. baumannii A473, without polymyxin B
[4] = tested on: Acinetobacter spp. H064200250; assay: MIC determination for Acinetobacter strains (Example 3); type: cell-based, Acinetobacter sp.; conditions: LEV R, CIP R, MRP R, IMP I
A. baumannii A329 [5] = assay: MIC without and with sub-inhibitory polymyxin B (Example 4); type: cell-based, Acinetobacter baumannii; conditions: for MIC: Acinetobacter baumannii
A. baumannii A472 [6] = assay: as above; type: cell-based, Acinetobacter baumannii; conditions: for MIC ratio without/with polymyxin B: A. baumannii A472, ratio MIC without PB to MIC + PB, PB […]; for MIC: Acinetobacter baumannii, A472, A. baumannii A472, without polymyxin B, read-out: MIC without PB
[7] = tested on: Acinetobacter sp. (H064200250); assay: as above; type: cell-based; conditions: Acinetobacter, without polymyxin B, read-out: MIC without PB
[8] = tested on: Acinetobacter sp. (H064200250); assay: Preliminary MBC without and with sub-inhibitory polymyxin B (Example 4); type: cell-based; conditions: Acinetobacter, without polymyxin B, preliminary MBC, read-out: MBC without PB
Protocol: The plates were incubated for 18-20 hours at 37° C. The MBC was read as the lowest concentration at which colony growth was ca. 90% less than the positive control (i.e. usually where single colonies or no colonies were observed).

[9] = tested on: 11 strains of A. baumannii and one strain of Acinetobacter sp.; assay: Preliminary MBC without and with sub-inhibitory polymyxin B, whole panel (Example 4; also strains not listed separately); type: cell-based; conditions: Acinetobacter baumannii, 2nd experiment, read-out: MBC without PB
A. baumannii ATCC 19606 [10] = assay: Preliminary MBC without and with sub-inhibitory polymyxin B (Example 4); type: cell-based, Acinetobacter baumannii; conditions: Acinetobacter baumannii, ATCC19606, A. baumannii ATCC 19606, without polymyxin B, preliminary MBC, read-out: MBC without PB
A. baumannii A489 [11] = assay: MIC without and with sub-inhibitory polymyxin B (Example 4); type: cell-based, Acinetobacter baumannii; conditions: Acinetobacter baumannii, A489, A. baumannii A489, without polymyxin B
A. baumannii ATCC 19606 [12] = assay: as above; type: cell-based, Acinetobacter baumannii; conditions: Acinetobacter baumannii, ATCC19606, A. baumannii ATCC 19606; without polymyxin B; 2nd experiment; second reading marked *, mark not explained; read-out: MIC without PB, value in parentheses marked *
A. baumannii A489 [13] = assay: Preliminary MBC without and with sub-inhibitory polymyxin B (Example 4); type: cell-based, Acinetobacter baumannii; conditions: Acinetobacter baumannii, A489, A. baumannii A489, without polymyxin B, read-out: MBC without PB
A. baumannii A473 [14] = assay: MIC determination for Acinetobacter strains (Example 3); type: cell-based; conditions: LEV R, CIP R, MRP R, IMP R, AMK R, TET R
A. baumannii A387 [15] = assay: Preliminary MBC without and with sub-inhibitory polymyxin B (Example 4); type: cell-based, Acinetobacter baumannii; conditions: Acinetobacter baumannii, A387, A. baumannii A387, without polymyxin B, read-out: MBC without PB
A. baumannii A472 [16] = assay: MIC determination for Acinetobacter strains (Example 3); type: cell-based; conditions: LEV R, CIP R, MRP I, IMP I, AMK R, TET R
A. baumannii A 401 = assay: as above; type: cell-based; conditions: A401, LEV R, CIP R, AMK R, TET R
A. baumannii A390 [17] = assay: as above; type: cell-based; conditions: LEV R, CIP R, MRP R, IPM I, AMK R, TET I
A. baumannii A473 [18] = assay: Preliminary MBC without and with sub-inhibitory polymyxin B (Example 4); type: cell-based, Acinetobacter baumannii; conditions: Acinetobacter baumannii, A473, A. baumannii A473, without polymyxin B, read-out: MBC without PB
A. baumannii A489 [19] = assay: MIC determination for Acinetobacter strains (Example 3); type: cell-based; conditions: LEV R, CIP R, MRP R, IMP R, AMK R, TET R
A. baumannii A390 [20] = assay: MIC without and with sub-inhibitory polymyxin B (Example 4); type: cell-based, Acinetobacter baumannii; conditions: Acinetobacter baumannii, A390, A. baumannii A390, without polymyxin B, read-out: MIC without PB
A. baumannii A472 [21] = assay: Preliminary MBC without and with sub-inhibitory polymyxin B (Example 4); type: cell-based, Acinetobacter baumannii; conditions: Acinetobacter baumannii, A472, A. baumannii A472, without polymyxin B, read-out: MBC without PB
A. baumannii A401 [22] = assay: as above; type: cell-based, Acinetobacter baumannii; conditions: Acinetobacter baumannii, A401, A baumannii A 401; without polymyxin B; preliminary MBC; 1st experiment; read-out: MBC without PB
A. baumannii A401 [23] = assay: MIC without and with sub-inhibitory polymyxin B (Example 4); type: cell-based, Acinetobacter baumannii; conditions: Acinetobacter baumannii, A401, A baumannii A 401, without polymyxin B, read-out: MIC without PB
A. baumannii A329 [24] = assay: Preliminary MBC without and with sub-inhibitory polymyxin B (Example 4); type: cell-based, Acinetobacter baumannii; conditions: Acinetobacter baumannii, A329, A. baumannii A329, without polymyxin B, 1st experiment, read-out: MBC without PB
A. baumannii J2 [25] = assay: MIC without and with sub-inhibitory polymyxin B (Example 4); type: cell-based, Acinetobacter baumannii; conditions: Acinetobacter baumannii, J2, A. baumannii J2; without polymyxin B; 1st experiment; read-out: MIC without PB
A. baumannii J2 [26] = assay: Preliminary MBC without and with sub-inhibitory polymyxin B (Example 4); type: cell-based, Acinetobacter baumannii; conditions: Acinetobacter baumannii, J2, A. baumannii J2; without polymyxin B; preliminary MBC; 1st experiment; read-out: MBC without PB
[27] = Acinetobacter spp. H064200250 (OXA51), 2nd experiment, visual reading
[28] = Acinetobacter spp. H064200250, 1st experiment
[29] = Acinetobacter spp. H064200250 (OXA51), 2nd experiment
[30] = 1st experiment, read-out: MIC without PB
[31] = 2nd experiment, MIC read with alamar blue, read-out: MIC without PB, read with alamar blue
[32] = 2nd experiment, visual reading, read-out: MIC without PB
[33] = read-out: MIC range without PB 01-10-2008 n = 8, without polymyxin B, 1st experiment, 8 strains

8-[(3S)-3-aminocyclopentyl]-1- cyclopropyl-7-fluoro-9-methyl- 4-oxo-quinolizine-3-carboxylic acid [Compound 10]
Yes, 2×: Dilutions improvement shift on B. thailandensis MIC90 (between pH 7 and pH 5) (B. thailandensis)
0.5 µg/mL: MIC +0.06 μg/ml PB (A. baumannii A387 [2]; 1st experiment)
1: MIC without PB/MIC + PB ([1]; A. baumannii A14, ratio, PB 0.06 μg/ml, 1st experiment)

NCC[C@H](O)C(=O)N[C@@H]1C[C@H](N)[C@@H](O[C@H]2O[C@H](CN)[C@@H](O)[C@H](O)[C@H]2O)[C@H](O)[C@H]1O[C@H]1O[C@H](CO)[C@@H](O)[C@H](N)[C@H]1O [Amikacin, reference compound]
not significantly affected: fold greater activity (fold lower MIC) in presence of polymyxin B compared to without polymyxin B [1]
16 µg/mL: MIC [4] | MIC [7, 28] | MBC [8, 28] | MBC ([9]; A. baumannii A14, without polymyxin B) | MBC (A. baumannii ATCC 19606 [10]; 2nd experiment) | MBC (A. baumannii ATCC 19606 [10]; 1st experiment)
8 µg/mL: MIC [7, 27] | MBC [8, 29]
≥ 4 µg/mL: MIC ratio without/with polymyxin B (A. baumannii A472 [6]; 2nd experiment)
128 µg/mL: MIC +0.06 μg/ml PB (A. baumannii A473 [3]; A. baumannii A473, +0.06 μg/ml polymyxin B, 2nd experiment, visual reading) | MIC +[…] PB ([1]; A. baumannii NCTC 13301, +[…] polymyxin B, 2nd experiment, visual reading) | MIC +0.06 μg/ml PB (A. baumannii A387 [2]; 2nd experiment, visual reading) | MIC +0.06 μg/ml PB (A. baumannii A329 [5]; A. baumannii A329, +0.06 μg/ml polymyxin B, 2nd experiment, visual reading)

C[C@@H](O)[C@H]1C(=O)N2C(C(=O)O)=C(S[C@@H]3CN[C@H](C(=O)N(C)C)C3)[C@H](C)[C@H]12 [Meropenem, reference compound]
32 µg/mL: MIC (A. baumannii A473 [3]; [31]) | MIC [4] | MIC (A. baumannii A489 [11]; [31]) | MIC ([1]; NCTC13301, A. baumannii NCTC 13301, without polymyxin B, 1st experiment, read-out: MIC without PB) | MIC (A. baumannii A 401) | MIC [7, 28] | MIC (A. baumannii A390 [17]) | MIC (A. baumannii A390 [20]; 1st experiment) | MIC (A. baumannii A390 [20]; 2nd experiment, visual reading) | MIC (A. baumannii A401 [23]; 1st experiment)
≥ 64 µg/mL: MIC ratio without/with polymyxin B (A. baumannii A472 [6]; 2nd experiment)
64 µg/mL: MIC ([1]; NCTC13301, A. baumannii NCTC 13301, without polymyxin B, 2nd experiment, visual reading, read-out: MIC without PB) | MIC (A. baumannii ATCC 19606 [12]) | MIC (A. baumannii A329 [5]; A329, read-out: MIC +0.06 μg/ml PB, read with alamar blue, A. baumannii A329, +0.06 μg/ml polymyxin B, 2nd experiment, MIC read with alamar blue) | MBC (A. baumannii A473 [18]; 1st experiment) | MBC ([9]; NCTC13301, A. baumannii NCTC 13301, without polymyxin B)
8 µg/mL: MIC (A. baumannii A387 [2]; 2nd experiment, visual reading) | MBC (A. baumannii A489 [13]; 1st experiment) | MBC (A. baumannii A387 [15]; 2nd experiment) | MIC (A. baumannii A472 [16]) | MIC (A. baumannii A472 [6]; 1st experiment) | MIC (A. baumannii A472 [6]; 2nd experiment, visual reading) | MBC (A. baumannii A472 [21]; 1st experiment) | MBC (A. baumannii A472 [21]; 2nd experiment)
16 µg/mL: MIC (A. baumannii A473 [3]; [30]) | MIC (A. baumannii A473 [3]; [32]) | MIC (A. baumannii A489 [11]; [30]) | MIC (A. baumannii A489 [11]; [32]) | MBC (A. baumannii A489 [13]; 2nd experiment) | MIC (A. baumannii A473 [14]) | MIC [7, 27] | MBC (A. baumannii A473 [18]; 2nd experiment) | MIC (A. baumannii A489 [19]) | MBC (A. baumannii A401 [22]) | MBC [8, 29] | MBC [8, 28] | MIC (A. baumannii A401 [23]; 2nd experiment, visual reading)
1 to 32 µg/mL: MIC [1, 33]

Cc1c(-c2ccc(N)c(F)c2)c(F)cn2c(=O)c(C(=O)O)cc(C3CC3)c12 [Compound 17, 8-(3-fluoro-4-amino-phenyl)-1-cyclopropyl-7-fluoro-9-methyl-4-oxo-quinolizine-3-carboxylic acid]
2 µg/mL: MBC (A. baumannii A387 [15]; 1st experiment)
1 µg/mL: MIC (A. baumannii A387 [2]; 1st experiment) | MBC (A. baumannii ATCC 19606 [10]; 1st experiment)
8 µg/mL: MIC (A. baumannii A489 [11]; [30]) | MBC (A. baumannii A329 [24]) | MIC (A. baumannii A329 [5]; A329, A. baumannii A329, without polymyxin B, 1st experiment, read-out: MIC without PB) | MIC [7, 28] | MBC (A. baumannii A401 [22]) | MBC [8, 28]
4 µg/mL: MIC (A. baumannii A473 [3]; [30]) | MBC (A. baumannii A489 [13]; 1st experiment) | MIC (A. baumannii A472 [6]; 1st experiment) | MIC (A. baumannii J2 [25]) | MBC (A. baumannii A473 [18]; 1st experiment) | MBC (A. baumannii J2 [26]) | MBC (A. baumannii A472 [21]; 1st experiment) | MIC (A. baumannii A401 [23]; 1st experiment)
1 to 16 µg/mL: MIC [1, 33]

Reference: patent US10155021B2, “Antimicrobial 4-oxoquinolizines” (Emergent Product Development Gaithersburg Inc., priority 2011, dated 2018)
